Earlier results in US20250356984A1 (priority 2022, published 2025).

Conditions: in vivo

CC(C)c1cccc(C(C)C)c1O [propofol]
time until target blood concentration is achieved: under a minute
